Measured values as given in article PMC7956643, “Synthesis of Novel Pyrido[1,2-c]pyrimidine Derivatives with 6-Fluoro-3-(4-piperidynyl)-1,2-benzisoxazole Moiety as Potential SSRI and 5-HT1A Receptor Ligands” (International Journal of Molecular Sciences, 2021).

Tests used:
[1] = molecular target: T1, human 5-HT1A receptor (Homo sapiens, UniProt P08908); assay: 5-HT1A radioligand binding assay; conditions: [3H]-8-OH-DPAT 1 nM; membranes from CHO-K1 cells with human 5-HT1A receptor
T1 construct: purchased PerkinElmer; host or cells: CHO-K1 cells, stably transfected
T1 sequence (P08908 1-422): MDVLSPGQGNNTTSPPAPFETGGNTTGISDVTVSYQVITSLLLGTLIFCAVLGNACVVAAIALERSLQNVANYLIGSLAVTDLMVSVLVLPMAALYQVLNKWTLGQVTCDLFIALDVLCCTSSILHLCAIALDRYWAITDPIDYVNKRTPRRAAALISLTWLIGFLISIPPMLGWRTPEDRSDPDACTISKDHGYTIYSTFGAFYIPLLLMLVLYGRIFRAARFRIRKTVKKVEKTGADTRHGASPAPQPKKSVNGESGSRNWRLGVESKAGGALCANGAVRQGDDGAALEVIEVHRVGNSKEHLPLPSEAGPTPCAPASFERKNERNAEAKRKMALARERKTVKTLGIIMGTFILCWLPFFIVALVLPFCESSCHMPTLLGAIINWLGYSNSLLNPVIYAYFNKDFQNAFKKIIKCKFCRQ
Method: Radioligand binding was performed using membranes from CHO-K1 cells stably transfected with the human 5-HT1A receptor (PerkinElmer, Fremont, CA, USA). All assays were carried out in duplicate. Then, 50 µL working solution of the tested compounds, 50 µL [^3H]-8-OH-DPAT (final concentration 1 nM) and 150 µL diluted membranes (20 µg protein per well) prepared in assay buffer (50 mM Tris, pH 7.4, 10 mM MgSO4, 0.5 mM EDTA, 0.1% ascorbic acid) were transferred to a polypropylene 96-well microplate using 96-wells pipetting station Rainin Liquidator (MettlerToledo, Columbus, OH, USA). […] The reaction was terminated by rapid filtration through GF/B filter mate, presoaked with 0.5% polyethyleneimine for 30 min. Ten rapid washes with 200 µL 50 mM Tris buffer (4 °C, pH 7.4) were performed using an automated harvester system—Harvester-96 MACH III FM (Tomtec, Hamden, CT, USA). […] Data were fitted to a one-site curve-fitting equation with Prism 6 (GraphPad Software, San Diego, CA, USA) and Ki values were estimated from the Cheng–Prusoff equation.

[2] = molecular target: T2, SERT protein (Rattus norvegicus, UniProt P31652); assay: SERT radioligand binding assay; conditions: [3H]-citalopram 1.0 nM; rat cortex tissue
T2 construct: from tissue; host or cells: rat cortex
T2 sequence (P31652 whole entry): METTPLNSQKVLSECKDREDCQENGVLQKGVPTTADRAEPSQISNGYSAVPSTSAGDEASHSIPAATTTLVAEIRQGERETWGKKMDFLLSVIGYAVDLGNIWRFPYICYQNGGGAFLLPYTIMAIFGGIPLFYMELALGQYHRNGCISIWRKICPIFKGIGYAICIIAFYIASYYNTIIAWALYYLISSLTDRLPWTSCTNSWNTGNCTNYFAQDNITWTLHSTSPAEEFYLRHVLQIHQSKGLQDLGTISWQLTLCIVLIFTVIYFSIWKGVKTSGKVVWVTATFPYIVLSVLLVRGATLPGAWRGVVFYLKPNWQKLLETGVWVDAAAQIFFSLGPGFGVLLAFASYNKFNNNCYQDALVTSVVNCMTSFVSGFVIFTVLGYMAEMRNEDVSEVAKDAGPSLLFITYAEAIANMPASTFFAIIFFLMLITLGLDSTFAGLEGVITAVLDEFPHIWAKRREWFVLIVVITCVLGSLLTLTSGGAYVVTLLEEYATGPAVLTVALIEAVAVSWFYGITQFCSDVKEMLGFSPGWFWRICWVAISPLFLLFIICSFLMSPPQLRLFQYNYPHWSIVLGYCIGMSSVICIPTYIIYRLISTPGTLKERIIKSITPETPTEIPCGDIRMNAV
Method: Radioligand binding was performed using rat cortex tissue. All assays were carried out in duplicate. First, 50 µL working solution of the tested compounds, 50 µL [^3H]-citalopram (final concentration 1.0 nM) and 150 µL tissue suspension, prepared in assay buffer (50 mM Tris. pH 7.7; 150 mM NaCl; 5 mM KCl), were transferred to a polypropylene 96-well microplate using 96-wells pipetting station Rainin Liquidator (MettlerToledo). […] The reaction was terminated by rapid filtration through GF/B filter mate presoaked with 0.3% polyethyleneimine for 30 min. Ten rapid washes with 200 µL 50 mM Tris buffer (4 °C, pH 7.7) were performed using an automated harvester system—Harvester-96 MACH III FM (Tomtec). […] Data were fitted to a one-site curve-fitting equation with Prism 6 (GraphPad Software) and Ki values were estimated from the Cheng–Prusoff equation.

[3] = molecular target: T3, 5-HT7 receptors (Homo sapiens, UniProt P34969); assay: 5-HT7 radioligand binding assay; conditions: [3H]-5-CT; HEK293 cells, human receptor
T3 construct: expressed in transfected cells
T3 sequence (P34969 whole entry): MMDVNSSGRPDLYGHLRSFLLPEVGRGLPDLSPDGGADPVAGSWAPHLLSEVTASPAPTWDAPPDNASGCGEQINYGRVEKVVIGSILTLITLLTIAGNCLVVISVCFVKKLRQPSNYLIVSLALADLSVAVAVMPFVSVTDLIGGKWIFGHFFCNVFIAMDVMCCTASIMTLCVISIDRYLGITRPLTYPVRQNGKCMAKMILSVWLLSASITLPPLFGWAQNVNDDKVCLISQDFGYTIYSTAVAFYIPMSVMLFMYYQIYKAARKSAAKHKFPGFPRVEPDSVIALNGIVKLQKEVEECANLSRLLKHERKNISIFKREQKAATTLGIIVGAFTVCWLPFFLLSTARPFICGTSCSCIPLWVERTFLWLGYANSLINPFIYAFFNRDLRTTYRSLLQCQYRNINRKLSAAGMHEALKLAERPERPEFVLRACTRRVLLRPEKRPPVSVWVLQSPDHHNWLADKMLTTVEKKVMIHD
Method: In vitro radioligand binding assays for 5-HT2A, 5-HT6, 5-HT7 and D2 receptors were carried out using methods published by Zajdel et al.. For the assays, HEK293 cell cultures stably expressing the investigated human receptors were used. Cell pellets were thawed and homogenized in 20 vol of assay buffer using an Ultra Turrax tissue homogenizer, then centrifuged twice at 35000 g for 20 min at 4 °C, with incubation for 15 min at 37 °C in between. The composition of the assay buffers was as follows: for 5-HT2A receptors—50 mM Tris-HCl, 0.1 mM EDTA, 4 mM MgCl2 and 0.1% ascorbate; for 5-HT6 receptors—50 mM Tris-HCl, 0.5 mM EDTA, 4 mM MgCl2; for 5-HT7 receptors—50 mM Tris-HCl, 4 mM MgCl2, 10 µM pargyline and 0.1% ascorbate; for D2 receptors—50 mM Tris-HCl, 1 mM EDTA, 4 mM MgCl2, 120 mM NaCl, 5 mM KCl, 1.5 mM CaCl2 and 0.1% ascorbate. All assays were incubated in total volume of […] in 96-well microtitre plates for 1 h at 37 °C, except for 5-HT2A receptors which were incubated at room temperature for 1.5 h. The process of equilibration was terminated by rapid filtration through Unifilter plates with a 96-well cell harvester, and radioactivity retained on the filters was quantified on a Microbeta plate reader (PerkinElmer, USA). For displacement studies, the assay samples contained as radioligands (PerkinElmer): 2 nM [^3H]-ketanserin (spec. act. 53.4 Ci/mmol) for 5-HT2A receptors; 2 nM [^3H]-LSD (spec. act. 83.6 Ci/mmol) for 5-HT6 receptors; 0.6 nM [^3H]-5-CT (spec. act. 39.2 Ci/mmol) for 5-HT7 receptors and [^3H]-raclopride (spec. act. 76.0 Ci/mmol) for D2 receptors. […] Each compound was tested in triplicate at 7–8 concentrations (10^-11-10^-4 M). The inhibition constants (Ki) were calculated from the Cheng–Prusoff equation [46]. Results were expressed as means of at least two separate experiments.

O=c1c(-c2ccccc2)c2ccccn2c(=O)n1CCCCN1CCC(c2noc3cc(F)ccc23)CC1 [Compound 6a, 4-Phenyl-2-{4-[4-(6-fluoro-1,2-benzoxazol-3-yl)-1-piperidyl]butyl}-pyrido[1,2-c]pyrimidine-1,3-dione]
Ki [1]: 23 ± 1 nM | Ki [2]: 32 ± 3.6 nM | Ki [3]: 62 ± 5 nM | melting point: 132 to 133 °C

O=c1c(-c2ccccc2Cl)c2ccccn2c(=O)n1CCCCN1CCC(c2noc3cc(F)ccc23)CC1 [Compound 6d, 4-(2-Chlorophenyl)-2-{4-[4-(6-fluoro-1,2-benzoxazol)-1-piperidyl]butyl}-pyrido[1,2-c]pyrimidine-1,3-dione]
Ki [1]: 11 ± 1.4 nM | Ki [2]: 373 ± 32 nM | Ki [3]: 109 ± 14 nM | melting point: 69 to 74 °C
